What follows are molecules tested against human TrkA receptor (Homo sapiens (Human), UniProt P04629) (assay: TrkA functional activity, DiscoverX PathHunter assay (NGF-stimulated U2OS cells)). Conditions: U2OS cells expressing human TrkA-Prolink, Shc1-EA and p75NTR; compound 1 h, then NGF (~80% of maximal response) 3 h; luminescence.
Assay type: cell-based
Procedure, shortened: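 U2OS cells co-expressing human TrkA-PK fusion, Shc1-EA and p75NTR were pre-incubated 1 h with compound, then stimulated 3 h at ambient temperature with NGF at ~EC80. Shc1 recruitment to phosphorylated TrkA read as β-galactosidase complementation by chemiluminescence after 1 h detection.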

human TrkA receptor, sequence (P04629 33-796): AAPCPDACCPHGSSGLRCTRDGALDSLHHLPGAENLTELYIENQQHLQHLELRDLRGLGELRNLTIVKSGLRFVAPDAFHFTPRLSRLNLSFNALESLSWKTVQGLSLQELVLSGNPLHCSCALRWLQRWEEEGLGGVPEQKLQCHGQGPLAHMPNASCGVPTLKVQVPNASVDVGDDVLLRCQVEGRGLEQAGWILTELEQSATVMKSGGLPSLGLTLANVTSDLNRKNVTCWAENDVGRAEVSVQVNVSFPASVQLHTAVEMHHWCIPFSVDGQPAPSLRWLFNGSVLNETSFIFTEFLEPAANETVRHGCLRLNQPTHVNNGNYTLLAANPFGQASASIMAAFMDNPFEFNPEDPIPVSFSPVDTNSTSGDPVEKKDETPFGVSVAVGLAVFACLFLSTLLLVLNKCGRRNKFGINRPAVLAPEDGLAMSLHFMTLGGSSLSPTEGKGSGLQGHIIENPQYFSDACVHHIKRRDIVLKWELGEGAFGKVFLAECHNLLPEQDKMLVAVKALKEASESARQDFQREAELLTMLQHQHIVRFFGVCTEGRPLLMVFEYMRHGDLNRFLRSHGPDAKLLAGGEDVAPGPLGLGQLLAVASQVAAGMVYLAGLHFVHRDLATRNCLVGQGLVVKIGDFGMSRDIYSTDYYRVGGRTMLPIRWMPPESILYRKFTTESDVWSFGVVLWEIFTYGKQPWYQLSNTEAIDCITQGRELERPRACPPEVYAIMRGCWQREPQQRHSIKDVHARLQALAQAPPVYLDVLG

Structure (SMILES) | IC50 [nM]
Cc1ccccc1-c1ccn2c(C(N)=O)cnc2c1NC(=O)c1cc(-c2ccn(C)n2)c(C(F)(F)F)cc1F [Compound 56, 8-(2-Fluoro-5-(1-methyl-1H-pyrazol-3-yl)-4-(trifluoromethyl)benzamido)-7-(o-tolyl)imidazo[1,2-a]pyridine-3-carboxamide] | 29
Cc1ncc2nc(-c3ccccc3)c(NC(=O)c3ccc(C(F)(F)F)c(-c4ccn(C)n4)c3)cn12 [Compound 62, 3-(1-Methyl-1H-pyrazol-3-yl)-N-(6-methyl-2-phenylimidazo[1,5-a]pyrimidin-3-yl)-4-(trifluoromethyl)benzamide] | 47
Cn1ccc(-c2cc(C(=O)Nc3cn4cncc4nc3-c3ccccc3)c(F)cc2C(F)(F)F)n1 [Compound 64, 2-Fluoro-5-(1-methyl-1H-pyrazol-3-yl)-N-(2-phenylimidazo[1,5-a]pyrimidin-3-yl)-4-(trifluoromethyl)benzamide] | 5.5
CCOC(=O)c1cnc2c(NC(=O)c3cc(-c4ccn(C)n4)c(C(F)(F)F)s3)c(-c3ccccc3)ccn12 [Compound 66, Ethyl 8-(4-(1-methyl-1H-pyrazol-3-yl)-5-(trifluoromethyl)thiophene-2-carboxamido)-7-phenylimidazo[1,2-a]pyridine-3-carboxylate] | 204
O=C(Nc1c(-c2ccccc2)ncn2c(CO)cnc12)c1cc(-c2ncccn2)c(C(F)(F)F)cc1F [Compound 69, 2-Fluoro-N-(3-(hydroxymethyl)-7-phenylimidazo[1,2-c]pyrimidin-8-yl)-5-(pyrimidin-2-yl)-4-(trifluoromethyl)benzamide] | 6.5
Cn1ccc(-c2cc(C(=O)Nc3c(-c4ccccc4)ncn4c(CO)cnc34)c(F)cc2C(F)(F)F)n1 [Compound 70, 2-Fluoro-N-(3-(hydroxymethyl)-7-phenylimidazo[1,2-c]pyrimidin-8-yl)-5-(1-methyl-1H-pyrazol-3-yl)-4-(trifluoromethyl)benzamide] | 1.2

Results, then the molecule that gave them:

IC50 [nM] | Structure (SMILES)
201 | CC(C)(O)c1cnc2c(NC(=O)c3cc(-c4ncccn4)c(C(F)(F)F)cc3F)c(-c3cccc(CO)c3)ccn12 [Compound 57, 2-Fluoro-N-(7-(3-(hydroxymethyl)phenyl)-3-(2-hydroxypropan-2-yl)imidazo[1,2-a]pyridin-8-yl)-5-(pyrimidin-2-yl)-4-(trifluoromethyl)benzamide]
232 | O=C(Nc1c(-c2cccc(CO)c2)ccn2ccnc12)c1cc(-c2ncccn2)c(C(F)(F)F)cc1F [Compound 58, 2-Fluoro-N-(7-(3-(hydroxymethyl)phenyl)imidazo[1,2-a]pyridin-8-yl)-5-(pyrimidin-2-yl)-4-(trifluoromethyl)benzamide]
25 | CC(C)(O)c1ncn2c(NC(=O)c3cc(-c4ncccn4)c(C(F)(F)F)cc3F)c(-c3ccccc3)ccc12 [Compound 59]
4 | Cn1ccc(-c2cc(C(=O)Nc3cn4c(CO)ncc4nc3-c3ccccc3)c(F)cc2C(F)(F)F)n1 [Compound 61, 2-Fluoro-N-(6-(hydroxymethyl)-2-phenylimidazo[1,5-a]pyrimidin-3-yl)-5-(1-methyl-1H-pyrazol-3-yl)-4-(trifluoromethyl)benzamide]
32 | Cn1ccc(-c2cc(C(=O)Nc3cn4c(C(=O)O)ncc4nc3-c3ccccc3)c(F)cc2C(F)(F)F)n1 [Compound 63, 3-(2-Fluoro-5-(1-methyl-1H-pyrazol-3-yl)-4-(trifluoromethyl)benzamido)-2-phenylimidazo[1,5-a]pyrimidine-6-carboxylic acid]
4.4 | Cn1ccc(-c2cc(C(=O)Nc3cn4c(CO)ncc4cc3-c3ccccc3)c(F)cc2C(F)(F)F)n1 [Compound 65, 2-Fluoro-N-(3-(hydroxymethyl)-7-phenylimidazo[1,5-a]pyridin-6-yl)-5-(1-methyl-1H-pyrazol-3-yl)-4-(trifluoromethyl)benzamide]
56 | Cn1ccc(-c2cc(C(=O)Nc3c(-c4ccccc4)ccn4c(C(N)=O)cnc34)sc2C(F)(F)F)n1 [Compound 67, 8-(4-(1-Methyl-1H-pyrazol-3-yl)-5-(trifluoromethyl)thiophene-2-carboxamido)-7-phenylimidazo[1,2-a]pyridine-3-carboxamide]
48 | Cn1ccc(-c2cc(C(=O)Nc3c(-c4ccccc4)ccn4c(CO)cnc34)sc2C(F)(F)F)n1 [Compound 68, N-(3-(Hydroxymethyl)-7-phenylimidazo[1,2-a]pyridin-8-yl)-4-(1-methyl-1H-pyrazol-3-yl)-5-(trifluoromethyl)thiophene-2-carboxamide]
4.8 | CC(C)(O)c1cnc2c(NC(=O)c3cc(-c4ncccn4)c(C(F)(F)F)cc3F)c(-c3ccccc3)ncn12 [Compound 73, 2-Fluoro-N-(3-(2-hydroxypropan-2-yl)-7-phenylimidazo[1,2-c]pyrimidin-8-yl)-5-(pyrimidin-2-yl)-4-(trifluoromethyl)benzamide]

Source: patent US10556900B2, “TrkA kinase inhibitors, compositions and methods thereof” (Merck Sharp & Dohme Corp., priority 2015, dated 2020)
